Results as given in publication PMC8812461, “Synthesis of New 3-Arylcoumarins Bearing N-Benzyl Triazole Moiety: Dual Lipoxygenase and Butyrylcholinesterase Inhibitors With Anti-Amyloid Aggregation and Neuroprotective Properties Against Alzheimer’s Disease” (Frontiers in Chemistry, 2022).
Where two headings read alike, the source gives them in different places.

How the values were obtained:
[1] = molecular target: T1, 15-LOX (soybean lipoxygenase) (Glycine max, UniProt P08170); assay: Soybean 15-LOX inhibition assay; format: biochemical
T1 construct: purchased Merck or Aldrich
T1 sequence (P08170 1-839): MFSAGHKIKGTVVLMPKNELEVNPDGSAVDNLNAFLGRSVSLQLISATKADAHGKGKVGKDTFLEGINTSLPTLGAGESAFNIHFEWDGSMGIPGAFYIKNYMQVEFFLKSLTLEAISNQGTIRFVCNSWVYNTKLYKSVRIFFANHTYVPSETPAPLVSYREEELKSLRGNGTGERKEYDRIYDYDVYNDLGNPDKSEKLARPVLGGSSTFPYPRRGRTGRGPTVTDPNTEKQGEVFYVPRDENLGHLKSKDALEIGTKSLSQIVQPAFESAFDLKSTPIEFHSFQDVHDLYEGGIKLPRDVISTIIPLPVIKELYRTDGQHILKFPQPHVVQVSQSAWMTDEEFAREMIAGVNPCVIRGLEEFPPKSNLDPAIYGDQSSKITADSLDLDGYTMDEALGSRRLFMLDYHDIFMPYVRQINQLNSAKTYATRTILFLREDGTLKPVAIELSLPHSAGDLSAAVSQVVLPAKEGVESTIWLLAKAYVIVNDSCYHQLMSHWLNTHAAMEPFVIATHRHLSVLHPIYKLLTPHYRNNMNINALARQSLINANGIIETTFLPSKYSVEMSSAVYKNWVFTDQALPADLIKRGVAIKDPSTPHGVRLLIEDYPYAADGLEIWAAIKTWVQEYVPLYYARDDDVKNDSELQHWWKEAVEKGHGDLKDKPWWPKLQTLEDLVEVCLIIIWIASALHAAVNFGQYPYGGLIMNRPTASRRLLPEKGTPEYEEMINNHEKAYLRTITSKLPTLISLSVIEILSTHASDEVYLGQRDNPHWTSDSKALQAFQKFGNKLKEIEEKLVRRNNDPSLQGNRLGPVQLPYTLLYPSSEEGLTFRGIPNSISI
Experimental: A solution of the target compound was prepared in DMSO, and it was diluted with phosphate buffer (0.1 M, pH = 8.0).

[2] = molecular target: T2, AChE (from electrophorus electricus) (Electrophorus electricus, UniProt O42275); assay: Cholinesterase inhibition assay (Ellman's method), AChE; format: biochemical; settings: test concentration not given
T2 construct: purchased Merck or Aldrich
Experimental: (§1) AChE from electrophorus electricus and BuChE from equine serum was employed for Ellman’s assay. Each compound (5.0 mg) was dissolved in 1.0 ml of DMSO. […] Briefly, a mixture of phosphate buffer (2.0 ml, 0.1 M, pH = 8.0), 60.0 µl of DTNB solution, and 20.0 µl of AChE/BuChE was prepared, and 30.0 µl of the test compounds in different concentrations were then added to the mixture. Next, a solution of the substrate (acetylthiocholine iodide/butyrylthiocholine iodide, 20.0 µl) was added to the mixture after 10 min incubation at 25°C. All experiments were performed in triplicates, and the temperature of all solutions was controlled to be maintained at 25°C. […] The blank solution was used to validate the non-enzymatic hydrolysis of the substrate during the assessment. The blank solution was prepared by a mixture of 2.0 ml of buffer, 30.0 μl of DMSO, 60.0 μl of DTNB, and 20.0 μl of substrate. The rate of the enzymatic hydrolysis of the substrate was calculated, and % inhibition of the compounds was determined. The half maximal inhibitory concentration (IC50) values were graphically determined from inhibition curves (logarithm of the concentration of the tested compound versus percent of the inhibition).

[3] = molecular target: T3, BuChE (from equine serum) (Equus caballus, UniProt P81908); assay: biochemical; format: biochemical; settings: for IC50: mean ± SEM of three experiments, read-out: eq BuChE IC50; for eq BuChE %inhib.: test concentration not given
T3 construct: BuChE from equine serum was employed for Ellman’s assay; purchased Merck or Aldrich; host or cells: equine serum
Experimental: as §1

[4] = molecular target: T4, Aβ1-42 (Homo sapiens, UniProt P05067); assay: Self-induced Aβ1-42 aggregation (ThT assay); format: biochemical; settings: Aβ1-42 10.0 μM, compound 100.0 μM, ThT
T4 construct: was used to dissolve amyloid β1-40 (Sigma A1075); purchased Sigma A1075

[5] = in vitro; format: cell-based; settings: MTT, read-out: PC12 viability percent (cytotoxicity)
Experimental: The cytotoxic effect of the selected compounds (8l and 8n) on the PC12 cell line was evaluated by using the MTT-based colorimetric assay. First, the PC12 cell line was cultivated in DMEM culture medium, supplemented with fetal bovine serum (10%). […]. Thereafter, the culture medium of each well was replaced by 20 µl MTT solution (5.0 mg/ml) and incubated to form formazan crystals, followed by dissolving them in DMSO (100.0 µl) and recording the related absorbance at 570 nm using a Synergy 2 multimode plate reader (Biotek, Winooski, VT, United States). The viability percent was then calculated according to the control well, where no compound was added to the related well. The mentioned protocol was repeated in triplicates, and the mean ± SEM of the obtained results was reported.

[6] = soybean lipoxygenase, linoleic acid substrate, read-out: 15-LOX IC50

T3 sequence (P81908 whole entry): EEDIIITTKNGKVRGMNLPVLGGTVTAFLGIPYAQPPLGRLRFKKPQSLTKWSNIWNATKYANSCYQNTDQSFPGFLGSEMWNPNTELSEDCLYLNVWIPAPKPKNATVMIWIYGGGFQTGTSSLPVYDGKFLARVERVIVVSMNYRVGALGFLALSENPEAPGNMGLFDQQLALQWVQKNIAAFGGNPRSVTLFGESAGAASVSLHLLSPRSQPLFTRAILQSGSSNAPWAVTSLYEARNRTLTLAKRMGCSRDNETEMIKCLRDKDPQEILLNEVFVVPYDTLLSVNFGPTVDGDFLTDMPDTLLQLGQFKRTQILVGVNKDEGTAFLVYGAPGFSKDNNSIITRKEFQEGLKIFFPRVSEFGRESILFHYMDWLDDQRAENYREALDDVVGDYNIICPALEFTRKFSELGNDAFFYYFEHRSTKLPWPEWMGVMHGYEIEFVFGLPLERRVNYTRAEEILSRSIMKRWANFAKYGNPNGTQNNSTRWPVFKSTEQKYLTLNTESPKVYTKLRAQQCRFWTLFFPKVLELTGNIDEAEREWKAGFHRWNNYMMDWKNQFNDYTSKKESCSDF
T2 sequence (O42275 24-633): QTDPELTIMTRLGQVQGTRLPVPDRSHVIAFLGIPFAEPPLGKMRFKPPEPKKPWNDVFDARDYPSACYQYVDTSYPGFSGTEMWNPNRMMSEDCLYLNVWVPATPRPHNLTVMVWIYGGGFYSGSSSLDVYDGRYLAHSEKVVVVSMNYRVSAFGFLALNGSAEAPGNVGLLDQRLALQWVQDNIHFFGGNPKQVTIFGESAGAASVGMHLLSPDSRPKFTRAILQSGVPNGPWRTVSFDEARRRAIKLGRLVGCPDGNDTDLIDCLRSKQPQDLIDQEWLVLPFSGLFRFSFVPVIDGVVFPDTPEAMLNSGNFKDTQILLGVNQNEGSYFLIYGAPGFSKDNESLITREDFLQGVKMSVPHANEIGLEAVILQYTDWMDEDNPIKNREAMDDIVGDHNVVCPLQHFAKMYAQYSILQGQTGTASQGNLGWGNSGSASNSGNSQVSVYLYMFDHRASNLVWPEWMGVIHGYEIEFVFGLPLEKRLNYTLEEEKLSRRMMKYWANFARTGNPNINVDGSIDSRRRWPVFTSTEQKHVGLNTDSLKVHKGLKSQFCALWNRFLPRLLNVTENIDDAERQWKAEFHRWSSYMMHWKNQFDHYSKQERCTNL
T4 sequence (P05067 672-711): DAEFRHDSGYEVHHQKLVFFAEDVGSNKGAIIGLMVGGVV

SMILES	IC50 [1]	ee AChE %inhib. [2]	IC50 [3]	eq BuChE %inhib. [3]	IC50 [1, 6]	Inhibition of self-induced Aβ1-42 aggregation [4]	viability at 24 h, 50 µM [5]
O=c1oc2ccccc2cc1-c1ccc(OCc2cn(Cc3ccccc3)nn2)cc1 [8a, 3-(4-((1-Benzyl-1H-1,2,3-triazol-4-yl)methoxy)phenyl)-2H-chromen-2-one]	36.2 ± 1.5 µM	23.6%	27.6 ± 1.3 µM	–	–	–	–
O=c1oc2ccccc2cc1-c1ccc(OCc2cn(Cc3ccccc3F)nn2)cc1 [8b, 3-(4-((1-(2-Fluorobenzyl)-1H-1,2,3-triazol-4-yl)methoxy)phenyl)-2H-chromen-2-one]	16.5 ± 0.7 µM	11.2%	36.5 ± 1.1 µM	–	–	–	–
O=c1oc2ccccc2cc1-c1ccc(OCc2cn(Cc3cccc(F)c3)nn2)cc1 [8c, 3-(4-((1-(3-Fluorobenzyl)-1H-1,2,3-triazol-4-yl)methoxy)phenyl)-2H-chromen-2-one]	28.3 ± 1.4 µM	15.3%	–	48.9%	–	–	–
O=c1oc2ccccc2cc1-c1ccc(OCc2cn(Cc3ccc(F)cc3)nn2)cc1 [8d, 3-(4-((1-(4-Fluorobenzyl)-1H-1,2,3-triazol-4-yl)methoxy)phenyl)-2H-chromen-2-one]	45.2 ± 1.5 µM	32.4%	–	12.7%	–	–	–
O=c1oc2ccccc2cc1-c1ccc(OCc2cn(Cc3ccccc3Cl)nn2)cc1 [8e, 3-(4-((1-(2-Chlorobenzyl)-1H-1,2,3-triazol-4-yl)methoxy)phenyl)-2H-chromen-2-one]	–	37.3%	–	–	> 100 µM	–	–
O=c1oc2ccccc2cc1-c1ccc(OCc2cn(Cc3ccc(Cl)cc3)nn2)cc1 [8f, 3-(4-((1-(4-Chlorobenzyl)-1H-1,2,3-triazol-4-yl)methoxy)phenyl)-2H-chromen-2-one]	–	41.4%	–	23.6%	> 100 µM	–	–
O=c1oc2ccccc2cc1-c1ccc(OCc2cn(Cc3ccc(Br)cc3)nn2)cc1 [8g, 3-(4-((1-(4-Bromobenzyl)-1H-1,2,3-triazol-4-yl)methoxy)phenyl)-2H-chromen-2-one]	–	35.5%	–	46.7%	> 100 µM	–	–
O=c1oc2ccccc2cc1-c1ccc(OCc2cn(Cc3ccccc3[N+](=O)[O-])nn2)cc1 [8h, 3-(4-((1-(2-Nitrobenzyl)-1H-1,2,3-triazol-4-yl)methoxy)phenyl)-2H-chromen-2-one]	–	20.8%	–	–	> 100 µM	–	–
O=c1oc2ccccc2cc1-c1ccc(OCc2cn(Cc3cccc([N+](=O)[O-])c3)nn2)cc1 [8i, 3-(4-((1-(3-Nitrobenzyl)-1H-1,2,3-triazol-4-yl)methoxy)phenyl)-2H-chromen-2-one]	–	49.9%	–	–	> 100 µM	–	–
O=c1oc2ccccc2cc1-c1ccc(OCc2cn(Cc3ccc([N+](=O)[O-])cc3)nn2)cc1 [8j, 3-(4-((1-(4-Nitrobenzyl)-1H-1,2,3-triazol-4-yl)methoxy)phenyl)-2H-chromen-2-one]	–	14.7%	–	–	> 100 µM	–	–
Cc1cccc(Cn2cc(COc3ccc(-c4cc5ccccc5oc4=O)cc3)nn2)c1 [8k, 3-(4-((1-(3-Methylbenzyl)-1H-1,2,3-triazol-4-yl)methoxy)phenyl)-2H-chromen-2-one]	–	27.4%	–	37.1%	53.5 ± 1.5 µM	–	–
COc1ccc(Cn2cc(COc3ccc(-c4cc5ccccc5oc4=O)cc3)nn2)cc1 [8m, 3-(4-((1-(4-Methoxybenzyl)-1H-1,2,3-triazol-4-yl)methoxy)phenyl)-2H-chromen-2-one]	41 ± 1.4 µM	26.6%	–	40.2%	–	–	–
COc1cccc2cc(-c3ccc(OCc4cn(Cc5ccccc5F)nn4)cc3)c(=O)oc12 [8o, 3-(4-((1-(2-Fluorobenzyl)-1H-1,2,3-triazol-4-yl)methoxy)phenyl)-8-methoxy-2H-chromen-2-one]	14.2 ± 0.4 µM	4.0%	–	8.0%	–	–	–
COc1cccc2cc(-c3ccc(OCc4cn(Cc5cccc(F)c5)nn4)cc3)c(=O)oc12 [8p, 3-(4-((1-(3-Fluorobenzyl)-1H-1,2,3-triazol-4-yl)methoxy)phenyl)-8-methoxy-2H-chromen-2-one]	22.6 ± 0.8 µM	29.8%	–	41.7%	–	–	–
COc1cccc2cc(-c3ccc(OCc4cn(Cc5ccc(F)cc5)nn4)cc3)c(=O)oc12 [8q, 3-(4-((1-(4-Fluorobenzyl)-1H-1,2,3-triazol-4-yl)methoxy)phenyl)-8-methoxy-2H-chromen-2-one]	35 ± 1.3 µM	38.1%	18.9 ± 0.9 µM	–	–	–	–
COc1cccc2cc(-c3ccc(OCc4cn(Cc5ccc(Cl)cc5)nn4)cc3)c(=O)oc12 [8r, 3-(4-((1-(4-Chlorobenzyl)-1H-1,2,3-triazol-4-yl)methoxy)phenyl)-8-methoxy-2H-chromen-2-one]	> 100 µM	41.5%	6.7 ± 0.4 µM	–	–	–	–
COc1cccc2cc(-c3ccc(OCc4cn(Cc5ccccc5[N+](=O)[O-])nn4)cc3)c(=O)oc12 [8s, 8-Methoxy-3-(4-((1-(2-nitrobenzyl)-1H-1,2,3-triazol-4-yl)methoxy)phenyl)-2H-chromen-2-one]	–	27.4%	–	42.5%	> 100 µM	–	–
O=c1oc2ccc(Br)cc2cc1-c1ccc(OCc2cn(Cc3ccc(Br)cc3)nn2)cc1 [8t, 6-Bromo-3-(4-((1-(4-bromobenzyl)-1H-1,2,3-triazol-4-yl)methoxy)phenyl)-2H-chromen-2-one]	–	15.1%	–	–	> 100 µM	–	–
O=c1oc2ccc(Br)cc2cc1-c1ccc(OCc2cn(Cc3ccccc3F)nn2)cc1 [8u, 6-Bromo-3-(4-((1-(2-fluorobenzyl)-1H-1,2,3-triazol-4-yl)methoxy)phenyl)-2H-chromen-2-one]	–	45.1%	–	46.6%	61.5 ± 1.9 µM	–	–
O=c1oc2ccc([N+](=O)[O-])cc2cc1-c1ccc(OCc2cn(Cc3ccccc3)nn2)cc1 [8v, 3-(4-((1-Benzyl-1H-1,2,3-triazol-4-yl)methoxy)phenyl)-6-nitro-2H-chromen-2-one]	> 100 µM	48.3%	6.3 ± 0.4 µM	–	–	–	–
O=c1oc2ccc([N+](=O)[O-])cc2cc1-c1ccc(OCc2cn(Cc3ccccc3F)nn2)cc1 [8w, 3-(4-((1-(2-Fluorobenzyl)-1H-1,2,3-triazol-4-yl)methoxy)phenyl)-6-nitro-2H-chromen-2-one]	–	16.6%	–	30.4%	> 100 µM	–	–
COc1cc2c(cc1OC)C(=O)C(CC1CCN(Cc3ccccc3)CC1)C2 (stereo not drawn) [Donepezil, donepezil, reference compound]	–	–	–	–	–	42.5 ± 0.3%	–
Nc1c2c(nc3ccccc13)CCCC2 [Tacrine, tacrine, reference compound]	–	–	–	–	–	–	67.3 ± 1.3%
